Reference: patent publication US12594276B2, “Inhibitors of human immunodeficiency virus replication” (ViiV Healthcare UK (No.5) Limited, priority 2024, dated 2026)

Tests used:
[1] = Compound cytotoxicity, XTT-based colorimetric assay; assay type: cell-based; details: human; uninfected MT2 cells, day 4, XTT; read-out: CC50
Procedure, shortened: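 Cells seeded as for the antiviral assay but left uninfected (MT2). Compound exposure continued to day 4. XTT reagent added and colour read. CC50 calculated.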

[2] = tested on: recombinant NL4-3 virus (nef section replaced with Renilla luciferase gene) in MT-2 cells; assay: HIV cell culture assay (antiviral activity, luciferase readout); assay type: cell-based; details: Renilla, NL43, MT-2 cells infected for 4-5 days with recombinant NL4-3 Renilla luciferase virus
Procedure, shortened: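 Antiviral EC50 derived from luciferase signal using the exponential median effect equation. Infection of MT-2 cells ran 4-5 days alongside serial dilutions of compound, with virus generated by proviral clone transfection of 293T cells.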

Cc1cc(C2(F)CCC(F)(F)CC2)nc2nc([C@H](Cc3cc(F)cc(F)c3)NC(=O)Cn3nc(C(F)F)c4c3C(F)(F)[C@@H]3C[C@H]43)n(-c3ccc(Cl)c4c(NS(C)(=O)=O)nn([C@H](C)C(=O)N5CC(C)(C)OC(C)(C)C5)c34)c(=O)c12 (atropisomer, axis not shown; (P)) [Example 749, N-[(1S)-1-[(3P)-3-{4-chloro-3-methanesulfonamido-1-[(2R)-1-oxo-1-(2,2,6,6-tetramethylmorpholin-4-yl)propan-2-yl]-1H-indazol-7-yl}-5-methyl-4-oxo-7-(1,4,4-trifluorocyclohexyl)-3H,4H-pyrido[2,3-d]pyrimidin-2-yl]-2-(3,5-difluorophenyl)ethyl]-2-[(2S,4R)-9-(difluoromethyl)-5,5-difluoro-7,8-diazatricyclo[4.3.0.0^2,^4]nona-1(6),8-dien-7-yl]acetamide] showed a CC50 at 4 days [1] greater than 20000 pM and an EC50 [2] of 18 pM.
Cc1cc(C2(F)CCC(F)(F)CC2)nc2nc([C@H](Cc3cc(F)cc(F)c3)NC(=O)Cn3nc(C(F)F)c4c3C(F)(F)[C@@H]3C[C@H]43)n(-c3ccc(Cl)c4c(NS(C)(=O)=O)nn([C@@H](C)CN5C[C@H](F)C[C@H](F)C5)c34)c(=O)c12 (atropisomer, axis not shown; (P)) [Example 753, N-[(1S)-1-[(3P)-3-{4-chloro-1-[(2S)-1-[(3R,5S)-3,5-difluoropiperidin-1-yl]propan-2-yl]-3-methanesulfonamido-1H-indazol-7-yl}-5-methyl-4-oxo-7-(1,4,4-trifluorocyclohexyl)-3H,4H-pyrido[2,3-d]pyrimidin-2-yl]-2-(3,5-difluorophenyl)ethyl]-2-[(2S,4R)-9-(difluoromethyl)-5,5-difluoro-7,8-diazatricyclo[4.3.0.0^2,^4]nona-1(6),8-dien-7-yl]acetamide] showed a CC50 at 4 days [1] greater than 20000 pM and an EC50 [2] of 26 pM.
CCc1cc(C2CCC(F)(F)CC2)nc2nc([C@H](Cc3cc(F)cc(F)c3)NC(=O)Cn3nc(C(F)F)c4c3C[C@H]3C[C@@H]43)n(-c3ccc(Cl)c4c(NS(C)(=O)=O)nn(CCOC)c34)c(=O)c12 (relative stereo) [Example 636, N-[(1S)-1-[(3P)-3-[4-chloro-3-methanesulfonamido-1-(2-methoxyethyl)-1H-indazol-7-yl]-7-(4,4-difluorocyclohexyl)-5-ethyl-4-oxo-3H,4H-pyrido[2,3-d]pyrimidin-2-yl]-2-(3,5-difluorophenyl)ethyl]-2-[(2R*,4R*)-9-(difluoromethyl)-7,8-diazatricyclo[4.3.0.0^2,^4]nona-1(6),8-dien-7-yl]acetamide] showed a CC50 at 4 days [1] greater than 50000 pM and an EC50 [2] of 15 pM.
Compound CCc1cc(C2CCC(F)(F)CC2)nc2nc([C@H](Cc3cc(F)cc(F)c3)NC(=O)Cn3nc(C(F)(F)F)c4c3C[C@H]3C[C@@H]43)n(-c3ccc(Cl)c4c(NS(C)(=O)=O)nn(CCCOC)c34)c(=O)c12 (relative stereo) [Example 641, N-[(1S)-1-[(3P)-3-[4-chloro-3-methanesulfonamido-1-(3-methoxypropyl)-1H-indazol-7-yl]-7-(4,4-difluorocyclohexyl)-5-ethyl-4-oxo-3H,4H-pyrido[2,3-d]pyrimidin-2-yl]-2-(3,5-difluorophenyl)ethyl]-2-[(2R*,4R*)-9-(trifluoromethyl)-7,8-diazatricyclo[4.3.0.0^2,^4]nona-1(6),8-dien-7-yl]acetamide] has a CC50 at 4 days [1] greater than 50000 pM and an EC50 [2] of 29 pM.
For CCc1cc(C2CCC(F)(F)CC2)nc2nc([C@H](Cc3cc(F)cc(F)c3)NC(=O)Cn3nc(C(F)F)c4c3C[C@H]3C[C@@H]43)n(-c3ccc(Cl)c4c(NS(C)(=O)=O)nn(CCCOC)c34)c(=O)c12 (relative stereo) [Example 643, N-[(1S)-1-[(3P)-3-[4-chloro-3-methanesulfonamido-1-(3-methoxypropyl)-1H-indazol-7-yl]-7-(4,4-difluorocyclohexyl)-5-ethyl-4-oxo-3H,4H-pyrido[2,3-d]pyrimidin-2-yl]-2-(3,5-difluorophenyl)ethyl]-2-[(2R*,4R*)-9-(difluoromethyl)-7,8-diazatricyclo[4.3.0.0^2,^4]nona-1(6),8-dien-7-yl]acetamide], the CC50 at 4 days [1] was greater than 50000 pM and the EC50 [2] was 17 pM.
Work on Cc1cc(C2CCC(F)(F)CC2)nc2nc([C@H](Cc3cc(F)cc(F)c3)NC(=O)Cn3nc(C4CC4)c4c3C[C@@H]3C[C@H]43)n(-c3ccc(Cl)c4c(NS(C)(=O)=O)nn([C@H](C)C(=O)N5C[C@@H](C)O[C@@H](C)C5)c34)c(=O)c12 (relative stereo) [Example 679, N-[(1S)-1-[(3P)-3-{4-chloro-1-[(2R)-1-[(2R,6S)-2,6-dimethylmorpholin-4-yl]-1-oxopropan-2-yl]-3-methanesulfonamido-1H-indazol-7-yl}-7-(4,4-difluorocyclohexyl)-5-methyl-4-oxo-3H,4H-pyrido[2,3-d]pyrimidin-2-yl]-2-(3,5-difluorophenyl)ethyl]-2-[(2R*,4R*)-9-cyclopropyl-7,8-diazatricyclo[4.3.0.0^2,^4]nona-1(6),8-dien-7-yl]acetamide] yielded a CC50 at 4 days [1] greater than 20000 pM and an EC50 [2] of 12 pM.
Work on Cc1cc(C2CCC(F)(F)CC2)nc2nc([C@H](Cc3cc(F)cc(F)c3)NC(=O)Cn3nc(C4CC4)c4c3C[C@@H]3C[C@H]43)n(-c3ccc(Cl)c4c(NS(C)(=O)=O)nn(C[C@@H](C)N5C[C@H](F)C[C@H](F)C5)c34)c(=O)c12 (relative stereo) [Example 685, N-[(1S)-1-[(3P)-3-{4-chloro-1-[(2R)-2-[(3R,5S)-3,5-difluoropiperidin-1-yl]propyl]-3-methanesulfonamido-1H-indazol-7-yl}-7-(4,4-difluorocyclohexyl)-5-methyl-4-oxo-3H,4H-pyrido[2,3-d]pyrimidin-2-yl]-2-(3,5-difluorophenyl)ethyl]-2-[(2R*,4R*)-9-cyclopropyl-7,8-diazatricyclo[4.3.0.0^2,^4]nona-1(6),8-dien-7-yl]acetamide] yielded a CC50 at 4 days [1] greater than 20000 pM and an EC50 [2] of 10 pM.
Cc1cc(C2CCC(F)(F)CC2)nc2nc([C@H](Cc3cc(F)cc(F)c3)NC(=O)Cn3nc(C4CC4)c4c3C[C@@H]3C[C@H]43)n(-c3ccc(Cl)c4c(NS(C)(=O)=O)nn(CC5(N6C[C@@H](C)O[C@@H](C)C6)CC5)c34)c(=O)c12 (relative stereo) [Example 691, N-[(1S)-1-[(3P)-3-[4-chloro-1-({1-[(2R,6S)-2,6-dimethylmorpholin-4-yl]cyclopropyl}methyl)-3-methanesulfonamido-1H-indazol-7-yl]-7-(4,4-difluorocyclohexyl)-5-methyl-4-oxo-3H,4H-pyrido[2,3-d]pyrimidin-2-yl]-2-(3,5-difluorophenyl)ethyl]-2-[(2R*,4R*)-9-cyclopropyl-7,8-diazatricyclo[4.3.0.0^2,^4]nona-1(6),8-dien-7-yl]acetamide] gave a CC50 at 4 days [1] greater than 20000 pM and an EC50 [2] of 7 pM.
For C[C@H](O)c1cc(C2CCC(F)(F)CC2)nc2nc([C@H](Cc3cc(F)cc(F)c3)NC(=O)Cn3nc(C(F)F)c4c3C(F)(F)[C@@H]3C[C@H]43)n(-c3ccc(Cl)c4c(NS(C)(=O)=O)nn(CCN5CCC(F)(F)CC5)c34)c(=O)c12 (relative stereo) [Example 698, N-[(1S)-1-[(3P)-3-{4-chloro-1-[2-(4,4-difluoropiperidin-1-yl)ethyl]-3-methanesulfonamido-1H-indazol-7-yl}-7-(4,4-difluorocyclohexyl)-5-[(1R**)-1-hydroxyethyl]-4-oxo-3H,4H-pyrido[2,3-d]pyrimidin-2-yl]-2-(3,5-difluorophenyl)ethyl]-2-[(2R*,4S*)-9-(difluoromethyl)-5,5-difluoro-7,8-diazatricyclo[4.3.0.0^2,4]nona-1(6),8-dien-7-yl]acetamide], the CC50 at 4 days [1] was greater than 20000 pM and the EC50 [2] was 27 pM.
Cc1cc(C2(F)CCC(F)(F)CC2)nc2nc([C@H](Cc3cc(F)cc(F)c3)NC(=O)Cn3nc(C4CC4)c4c3C[C@@H]3C[C@H]43)n(-c3ccc(Cl)c4c(NS(C)(=O)=O)nn(C[C@@H](C)N5C[C@H](F)C[C@H](F)C5)c34)c(=O)c12 (relative stereo) [Example 702, N-[(1S)-1-[(3P)-3-{4-chloro-1-[(2R)-2-[(3R,5S)-3,5-difluoropiperidin-1-yl]propyl]-3-methanesulfonamido-1H-indazol-7-yl}-5-methyl-4-oxo-7-(1,4,4-trifluorocyclohexyl)-3H,4H-pyrido[2,3-d]pyrimidin-2-yl]-2-(3,5-difluorophenyl)ethyl]-2-[(2R*,4R*)-9-cyclopropyl-7,8-diazatricyclo[4.3.0.0^2,^4]nona-1(6),8-dien-7-yl]acetamide] showed a CC50 at 4 days [1] greater than 20000 pM and an EC50 [2] of 16 pM.
Work on Cc1cc(C2CCC(F)(F)CC2)nc2nc([C@H](Cc3cc(F)cc(F)c3)NC(=O)Cn3nc(C4CC4)c4c3C[C@@H]3C[C@H]43)n(-c3ccc(Cl)c4c(NS(C)(=O)=O)nn(C[C@H](C)N5CC(C)(C)OC(C)(C)C5)c34)c(=O)c12 (relative stereo) [Example 714, N-[(1S)-1-[(3P)-3-{4-chloro-3-methanesulfonamido-1-[(2S)-2-(2,2,6,6-tetramethylmorpholin-4-yl)propyl]-1H-indazol-7-yl}-7-(4,4-difluorocyclohexyl)-5-methyl-4-oxo-3H,4H-pyrido[2,3-d]pyrimidin-2-yl]-2-(3,5-difluorophenyl)ethyl]-2-[(2R*,4R*)-9-cyclopropyl-7,8-diazatricyclo[4.3.0.0^2,4]nona-1(6),8-dien-7-yl]acetamide] yielded a CC50 at 4 days [1] greater than 20000 pM and an EC50 [2] of 24 pM.
